Laboratory results: patent publication US12415810B2, “2'-isopropyl-spiro (3,3'-pyrrolidine oxindole) liver X receptor regulator, preparation method therefor, and use thereof” (SHENZHEN CELL INSPIRE PHARMACEUTICAL DEVELOPMENT CO., LTD., priority 2019, dated 2025)
Like-named read-outs stand apart in the source and are kept apart here.

Legend:
liver X receptors = experiment: Liver X receptor activity test, (subtype not named); type: cell-based, human; conditions: for inverse activation of liver X receptors (in words): summary of Table 1; for activation of liver X receptors (in words): summary of Table 2
Method: (§1) (1) Cell culture: human embryonic kidney cells (HEK293T cells) were cultured in DMEM (high glucose) medium containing 10% fetal bovine serum and 1% penicillin-streptomycin under conditions of 37° C. and 5% CO2.
(§2) (2) Transfection: HEK293T cells were seeded in a 96-well plate with a cell density of 2×10^4 cells/well. After 24 hours, the cells were transfected according to instructions of Lipofectamine™ 3000 reagent. The specific steps of transfection were as follows: • (1) adding 15 μL of L3000 reagent to 500 μL of DMEM (high sugar) medium, and vortex oscillating for 2 seconds; • (2) mixing 6.5 μg of pGL3/(DR-4)-c-fos-FF-luc plasmid, 0.13 μg of pCMV/Renilla-luc plasmid, 1.3 μg of pSG5/hLXRα (or pSG5/hLXRβ plasmid), 1.3 μg of pSG5/hRXRα plasmid, and 19 μL of P3000 reagent in 500 μL of DMEM (high sugar) medium; • (3) adding the plasmid mixture to a liposome mixture and standing by at room temperature for 20 minutes; and • (4) adding 10 μL of liposome-DNA solution to each well of the 96-well plate, and gently shaking the 96-well plate to mix well.
(§3) (3) Drug intervention: after 5 hours of transfection, the compounds to be tested were added, and the plate was placed in an incubator to continue culturing for 20 hours.
(§4) (4) Detection: dual-luciferase reporter gene system was used for detection. The specific steps of detection were as follows: • (1) aspirating the original medium in the 96-well plate, adding cell lysate to the 96-well plate at 20 μL/well, and quickly shaking the plate at room temperature for 20 minutes; • (2) adding samples to a 384-well plate at 20 μL/well; • (3) adding firefly luciferase substrate to each well at 10 μL/well, and measuring chemiluminescence after 7 seconds; and • (4) adding Renilla luciferase substrate to the same sample well at 100 μL/well, and measuring chemiluminescence after 7 seconds.
(§5) Result processing: the results were analyzed using Renilla luciferase activity to correct the firefly luciferase activity.

LXRβ = biological target: T1, LXRβ (Homo sapiens, UniProt P55055); experiment: Liver X receptor activity test, dual-luciferase reporter gene in HEK293T cells (pSG5/hLXRβ + hRXRα); type: cell-based
T1 construct: expressed in transfected cells; host or cells: HEK293T
T1 sequence (P55055 1-460): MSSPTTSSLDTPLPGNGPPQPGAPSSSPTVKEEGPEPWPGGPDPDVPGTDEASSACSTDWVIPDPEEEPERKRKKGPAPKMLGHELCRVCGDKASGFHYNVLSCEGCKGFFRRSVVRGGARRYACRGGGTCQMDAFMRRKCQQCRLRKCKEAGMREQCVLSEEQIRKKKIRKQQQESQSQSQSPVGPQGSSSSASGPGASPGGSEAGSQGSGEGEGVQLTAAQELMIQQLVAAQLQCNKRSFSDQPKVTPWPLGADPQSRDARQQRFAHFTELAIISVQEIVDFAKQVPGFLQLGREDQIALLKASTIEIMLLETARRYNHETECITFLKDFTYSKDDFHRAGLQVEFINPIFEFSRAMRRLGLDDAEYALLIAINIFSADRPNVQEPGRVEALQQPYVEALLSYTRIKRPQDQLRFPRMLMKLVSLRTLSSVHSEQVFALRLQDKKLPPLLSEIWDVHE
T1 sequence (P19793 1-462 partner): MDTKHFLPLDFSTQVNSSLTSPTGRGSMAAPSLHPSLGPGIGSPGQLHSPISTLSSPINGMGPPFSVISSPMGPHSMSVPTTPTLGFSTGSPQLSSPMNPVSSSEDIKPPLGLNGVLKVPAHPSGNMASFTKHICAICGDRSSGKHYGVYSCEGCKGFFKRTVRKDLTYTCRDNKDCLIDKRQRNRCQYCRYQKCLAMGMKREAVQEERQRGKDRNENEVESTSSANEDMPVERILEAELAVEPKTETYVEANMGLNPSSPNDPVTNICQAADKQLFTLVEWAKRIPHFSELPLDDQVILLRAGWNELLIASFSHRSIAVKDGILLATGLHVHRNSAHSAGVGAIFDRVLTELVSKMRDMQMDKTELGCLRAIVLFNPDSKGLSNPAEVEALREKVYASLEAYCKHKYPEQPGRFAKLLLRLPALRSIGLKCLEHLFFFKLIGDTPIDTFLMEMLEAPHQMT
Method: as §1, §2, §3, §4, §5

LXRα = biological target: T2, LXRα (Homo sapiens, UniProt Q13133); experiment: Liver X receptor activity test, dual-luciferase reporter gene in HEK293T cells (pSG5/hLXRα + hRXRα); type: cell-based; conditions: for EC50 / LXRα % Agonist effect: agonist activity
T2 construct: expressed in transfected cells; host or cells: HEK293T
T2 sequence (Q13133 1-447): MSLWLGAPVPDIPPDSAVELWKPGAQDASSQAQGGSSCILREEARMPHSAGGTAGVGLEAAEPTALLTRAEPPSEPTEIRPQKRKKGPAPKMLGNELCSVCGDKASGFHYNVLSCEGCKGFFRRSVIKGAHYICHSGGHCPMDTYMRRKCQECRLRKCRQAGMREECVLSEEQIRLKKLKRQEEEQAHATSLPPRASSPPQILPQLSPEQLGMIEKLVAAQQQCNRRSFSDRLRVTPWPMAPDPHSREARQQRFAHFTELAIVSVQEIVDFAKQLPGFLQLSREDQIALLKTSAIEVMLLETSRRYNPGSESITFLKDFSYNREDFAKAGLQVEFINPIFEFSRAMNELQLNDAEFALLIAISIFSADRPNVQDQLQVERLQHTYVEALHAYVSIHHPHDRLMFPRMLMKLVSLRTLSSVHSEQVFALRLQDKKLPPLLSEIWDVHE
T2 sequence (P19793 1-462 partner): T1 sequence (P19793 1-462 partner)
Method: as §1, §2, §3, §4, §5

[1] = test system: Triton WR-1339-induced hyperlipidemia mice; experiment: Lipid-lowering activity in Triton WR-1339-induced hyperlipidemia mice; type: in vivo, C57BL/6J mice; conditions: 100 mg/kg intragastric for 8 days
Method: 6-week-old SPF female C57BL/6J mice were purchased from the Experimental Animal Center of Sun Yat-sen University. The mice were randomly divided into 4 groups each including 6 mice, i.e., a normal control group, model a group, a fenofibrate group (100 mg/kg), and a B1 group (100 mg/kg), and intragastric administration was performed for 8 days. 24 hours before the last administration, the normal control group was intramuscularly injected with saline, and the remaining groups were injected with Triton WR-1339 (1500 mg/kg). One hour after the last administration, the eyeballs were removed to collect blood, the mice were executed by cervical dislocation, and the livers were collected. The plasma was allowed to stand for 1 hour, and the supernatant was collected by centrifugation at 4° C. and 3000 rpm. 100 mg of liver was weighed, added with methanol in 3 times the volume of the weighed liver, and homogenized thoroughly. Chloroform was then added in 6 times the volume and vortex oscillated. After centrifuging at 3000 rpm for 10 minutes, the lower chloroform layer was collected, and evaporated naturally overnight in a fume hood. 150 μL of 1% Triton ethanol was added and heated at 65° C. to be fully dissolved. Finally, triglycerides (TG), total cholesterol (TC), low-density lipoprotein cholesterol (LDL-C), and high-density lipoprotein cholesterol (HDL-C) in serum and liver samples were detected.

HepG2 cells = experiment: Triglyceride test in HepG2 cells induced by high glucose; type: cell-based, human; conditions: concentration of 10 μM, 24 hours
Method: (2) HepG2 cells were seeded in a 12-well plate, cultured with DMEM (low sugar) medium and starved for 12 hours. When the cells grow to a density of 70%, the medium was changed to DMEM (high sugar) medium and the compound was added to act for 24 hours.

[2] = test system: SREBP-1c, ACC, FAS and SCD-1; experiment: mRNA content of LXR downstream genes by qPCR in 3T3-L1 cells; type: cell-based, mouse; conditions: day 6 of differentiation
Method: (§6) HepG2 cells were seeded in a 6-well plate with a cell density of 8×10^5 cells/well and incubated for 24 hours. The compounds to be tested were added and acted for 24 hours, and then the cells were harvested. The 3T3-L1 cells were harvested on day 6 of differentiation. The cells were washed twice with PBS, total RNA was extracted with RNAiso plus reagent, 1 μg of total RNA was reverse transcribed into cDNA using ReverTra Ace qPCR RT Master Mix, and PCR amplification was performed using SYBR Green Realtime PCR Master Mix.

3T3-L1 cells = experiment: cells; conditions: Mus musculus, 3T3-L1, 144 h, read-out: IC50 for lowering the triglyceride level in 3T3-L1 cells
Method: (1) Cell culture: human liver cancer cells (HepG2 cells) and mouse pre-adipocytes (3T3L1 cells) were cultured in DMEM (high glucose) medium containing 10% fetal bovine serum and 1% penicillin-streptomycin under conditions of 37° C. and 5% CO2.
(3) The steps of differentiation preadipocytes 3T3-L1 were as follows:
Cells were seeded in a 48-well plate, cultured in complete medium until the cells were completely in contact (day 0), and the medium was changed to a differentiation medium I (complete medium supplemented with 2 μg/mL of insulin, 100 ng/mL of dexamethasone, 0.5 mM of 3-isobutyl-1-methylxanthine, and 10 ng/mL of biotin) to culture for 3 days. The blank control group was still continued being cultured with the complete medium. On day 3, the medium was changed to a differentiation medium II (complete medium supplemented with 2 μg/mL of insulin) and culturing was continued for 3 days. On day 6, the cells were harvested for subsequent analysis.
(4) Triglyceride test: the treated cells were harvested, washed twice with icy PBS (0.2 M NaCl, 10 mM Na2HPO4, 3 mM KCl, 2 mM KH2PO4, pH 7.4), breaking the cells with ultrasonic waves, and detecting absorbance at 510 nm using the triglyceride detection kit (Nanjing Jiancheng Bioengineering Institute).

[3] = test system: SREBP-1c, ACC, FAS and SCD-1; experiment: mRNA content of LXR downstream genes by qPCR in HepG2 cells; type: cell-based, human; conditions: 24 hours
Method: as §6

[4] = inverse agonist activity, HEK293T reporter gene
[5] = agonist activity, HEK293T reporter gene

CC(C)[C@@H]1N(C(=O)C(F)(F)F)CC[C@@]12C(=O)N(c1cccc(-c3ccc(CO)c(S(C)(=O)=O)c3)c1)c1ccccc12 [Compound 2b]
inverse activation of liver X receptors (in words) (liver X receptors): can inversely activate liver X receptors

CC(C)[C@@H]1N(C(=O)CC(C)(C)C)CC[C@@]12C(=O)N(c1cccc(-c3ccc4ccn(C)c4c3)c1)c1ccccc12 [Compound 4c]
Emax (LXRβ; HEK-293T, 20 h, inverse agonist activity, HEK293T reporter gene, read-out: LXRβ % Inverse agonist effect): 64%
IC50 (LXRβ; [4]): 10100 nM

CC(C)[C@@H]1N(C(=O)OC(C)(C)C)CC[C@@]12C(=O)N(c1cccc(-c3ccc(CO)c(S(C)(=O)=O)c3)c1)c1ccccc12 [Compound 2a]
inverse activation of liver X receptors (in words) (liver X receptors): can inversely activate liver X receptors

CCOC(=O)c1ccc(CN(Cc2ccc(-c3cccc(S(C)(=O)=O)c3)cc2)S(=O)(=O)c2c(C)cc(C)cc2C)o1 [SR9238, reference compound]
IC50 (LXRα; inverse agonist activity): 160 nM
LXRα % Inverse agonist effect (LXRα; inverse agonist activity): 93%
IC50 (LXRβ; [4]): 100 nM

CC(C)[C@@H]1N(C(=O)OC(C)(C)C)CC[C@@]12C(=O)N(c1cccc(-c3ccc(C(=O)N(C)C)c(Cl)c3)c1)c1ccccc12 [Compound 3a]
activation of liver X receptors (in words) (liver X receptors): can activate liver X receptors
EC50 (LXRα): 6920 nM
LXRα % Agonist effect (LXRα): 53%

CC(C)[C@@H]1N(C(=O)OC(C)(C)C)CC[C@@]12C(=O)N(c1cccc(-c3ccc(CO)c(S(C)(=O)=O)c3)c1)c1ccccc12 [Compound 2a-2]
inverse activation of liver X receptors (in words) (liver X receptors): can inversely activate liver X receptors

CC(C)[C@@H]1N(C(=O)C(C)(C)C)CC[C@@]12C(=O)N(c1cccc(-c3ccc(C(=O)N(C)C)c(Cl)c3)c1)c1ccccc12 [Compound 3b]
activation of liver X receptors (in words) (liver X receptors): can activate liver X receptors
EC50 (LXRα): 3670 nM
LXRα % Agonist effect (LXRα): 76%
EC50 (LXRβ; [5]): 3040 nM
LXRβ % Agonist effect (LXRβ; [5]): 50%

CC(C)[C@@H]1N(C(=O)C(C)(C)C)CC[C@@]12C(=O)N(c1cccc(-c3ccc(CO)c(S(C)(=O)=O)c3)c1)c1ccccc12 [Compound 2d]
inverse activation of liver X receptors (in words) (liver X receptors): can inversely activate liver X receptors

CC(C)[C@@H]1N(C(=S)NC(C)(C)C)CC[C@@]12C(=O)N(c1cccc(-c3ccc(C(=O)N(C)C)c(Cl)c3)c1)c1ccccc12 [Compound 3c]
activation of liver X receptors (in words) (liver X receptors): can activate liver X receptors

CC(C)[C@H]1N(C(=O)OC(C)(C)C)CC[C@]12C(=O)N(c1cccc(-c3ccc(CO)c(S(C)(=O)=O)c3)c1)c1ccccc12 [Compound 2a-1]
inverse activation of liver X receptors (in words) (liver X receptors): can inversely activate liver X receptors
triglyceride content in the livers of mice ([1]; liver): can reduce the triglyceride content
HDL-C/LDL-C level ([1]; serum): slightly increased
HDL-C/TC ([1]; serum): Neither fenofibrate nor compound 2a-1 had a significant effect
increase in HDL-C level induced by Triton WR-1339 ([1]; serum): significantly inhibit
increase in LDL-C level induced by Triton WR-1339 ([1]; serum): significantly inhibit
increase in TC level induced by Triton WR-1339 ([1]; serum): significantly inhibit
increase in TG level induced by Triton WR-1339 ([1]; serum): significantly inhibit
triglyceride accumulation in HepG2 cells induced by high glucose (HepG2 cells): significantly reduce
mRNA content of ACC [2]: reduced the mRNA content of SREBP-1c, ACC, FAS and SCD-1 in a concentration-dependent manner
mRNA content of FAS [2]: reduced the mRNA content of SREBP-1c, ACC, FAS and SCD-1 in a concentration-dependent manner
mRNA content of SCD-1 [2]: reduced the mRNA content of SREBP-1c, ACC, FAS and SCD-1 in a concentration-dependent manner
mRNA content of SREBP-1c [2]: reduced the mRNA content of SREBP-1c, ACC, FAS and SCD-1 in a concentration-dependent manner
IC50 (3T3-L1 cells): 270 ± 30 nM
mRNA content of ACC [3]: significantly reduced
mRNA content of FAS [3]: significantly reduced
mRNA content of SCD-1 [3]: significantly reduced
mRNA content of SREBP-1c [3]: significantly reduced

CC(C)[C@@H]1N(C(=O)CC(C)(C)C)CC[C@@]12C(=O)N(c1cccc(-c3ccc(CO)c(S(C)(=O)=O)c3)c1)c1ccccc12 [Compound 2c]
inverse activation of liver X receptors (in words) (liver X receptors): can inversely activate liver X receptors

O=C(O)Cc1cccc(OCCCN(Cc2cccc(C(F)(F)F)c2Cl)CC(c2ccccc2)c2ccccc2)c1 [GW3965, reference compound]
EC50 (LXRα): 360 nM
LXRα % Agonist effect (LXRα): 100%
LXRβ % Agonist effect (LXRβ): 100%
EC50 (LXRβ; [5]): 210 nM
